Laboratory results from patent publication US4032659A (priority 1975, dated 1977).
“Also recorded” adds a separate entry of the source. Where two headings read alike, the source gives them in different places.

Experiments:
[1] = system: Influenza B Massachusetts virus; assay: Chemoprophylaxis of Influenza B Massachusetts virus infection in mice; format: in vivo, mouse; details: oral
Description: The activity of four compounds on Influenza B Mass. was tested in mice.
A portion of a commercially available sample of amantadine was recrystallized from isopropanol. The activity of the material against Influenza B Mass. was tested for the sample as obtained, the recrystallized portion, and the mother liquor obtained from recrystallizing the portion.

Influenza PR 8 virus = assay: Chemoprophylaxis of Influenza PR 8 virus infection in mice; format: in vivo, mouse
virus infections = assay: Antiviral screening program, several viruses; details: mouse, in vivo
Vaccinia virus [2] = format: in vivo; details: scarified rabbit skin
Herpes virus [3] = format: in vivo, mouse
Herpes virus [4] = assay: Herpes virus in eggs (chick embryo survival); format: in vivo, chicken eggs; details: for Deaths on day 1 / Deaths on day 2 / Deaths on day 3 / Total Deaths 4th Day / Deaths on day 4: 12 eggs
[5] = system: Influenza Ann Arbor virus; assay: Chemoprophylaxis of Influenza Ann Arbor (A1) virus infection in mice; format: in vivo, mouse
[6] = system: Influenza B Maryland virus; assay: Chemoprophylaxis of Influenza B Maryland virus infection in mice; format: in vivo, mouse; details: for No. animals surviving when 18/20 of controls are dead / Survivors: oral
pox virus = assay: Pox virus infections of mice; details: mouse, in vivo
Influenza A PR8 virus = system: Influenza A PR8 virus; design: dose or concentration left out as unconfirmed; details: cited from earlier work
Vaccinia virus [7] = format: cell-based, fertile eggs; details: various concentrations
Columbia SK Polio virus = details: mouse, in vivo
[8] = subcutaneous, total dose .0005 μg

SMILES: CCC(C)=NNC(N)=S [2-Butanone, thiosemicarbazone, 2-butanone, thiosemicarbazone]
- No. animals surviving after 5 days ([1]; total dose .000005 μg): 6
- No. animals surviving when 100% controls are dead ([1]; total dose .000005 μg): 3
- Survivors ([1]; total dose .000005 μg): 2
- No. animals surviving after 5 days ([1]; total dose .00005 μg): 8
- No. animals surviving when 100% controls are dead ([1]; total dose .00005 μg): 3
- Survivors ([1]; total dose .00005 μg): 2
- No. animals surviving after 5 days ([1]; total dose .0005 μg): 7
- No. animals surviving when 100% controls are dead ([1]; total dose .0005 μg): 1
- Survivors ([1]; total dose .0005 μg): 0
- No. animals surviving after 5 days ([1]; total dose .005 μg): 4
- No. animals surviving when 100% controls are dead ([1]; total dose .005 μg): 0
- Survivors ([1]; total dose .005 μg): 0
- No. animals surviving after 5 days ([1]; total dose .05 μg): 4
- No. animals surviving when 100% controls are dead ([1]; total dose .05 μg): 2
- Survivors ([1]; total dose .05 μg): 0
- No. animals surviving after 5 days ([1]; total dose .5 μg): 5
- No. animals surviving when 100% controls are dead ([1]; total dose .5 μg): 4
- Survivors ([1]; total dose .5 μg): 1
- Survivors (Influenza PR 8 virus; drinking water 24 h post-infection only, first printed value (concentration column unclear)): 0
- Survivors (Influenza PR 8 virus; drinking water 24 h pre- and 24 h post-infection, 0.5 mg/ml): 1
- No. animals surviving after 6 days (Influenza PR 8 virus; oral, total dose .000005 μg): 6
- No. animals surviving after 7 days (Influenza PR 8 virus; oral, total dose .000005 μg): 4
- No. animals surviving after 6 days (Influenza PR 8 virus; oral, total dose .00005 μg): 5
- No. animals surviving after 7 days (Influenza PR 8 virus; oral, total dose .00005 μg): 8
- No. animals surviving when 19/20 of controls are dead (Influenza PR 8 virus; oral, total dose .00005 μg): 4
- Survivors (Influenza PR 8 virus; oral, total dose .00005 μg): 4
- No. animals surviving when 19/20 of controls are dead (Influenza PR 8 virus; oral, total dose .0005 μg): 1
- Survivors (Influenza PR 8 virus; oral, total dose .0005 μg): 1
- No. animals surviving when 19/20 of controls are dead (Influenza PR 8 virus; oral, total dose .005 μg): 0
- Survivors (Influenza PR 8 virus; subcutaneous, total dose .000005 μg): 0
- Survivors (Influenza PR 8 virus; subcutaneous, total dose .00005 μg): 0
- No. animals surviving after 6 days (Influenza PR 8 virus; [8]): 1
- Survivors (Influenza PR 8 virus; [8]): 1
- Survivors (Influenza PR 8 virus; subcutaneous, total dose .005 μg): 0
- activity (in words) (virus infections): one of the most active compounds that has been studied to date
- effect on pox formation (Vaccinia virus [2]): variable
- No. animals surviving when 17/20 controls are dead (Herpes virus [3]; oral, total dose .000005 μg): 0
- Survivors (Herpes virus [3]; oral, total dose .000005 μg): 0
- No. animals surviving when 17/20 controls are dead (Herpes virus [3]; oral, total dose .00005 μg): 4
- No. animals surviving when 17/20 controls are dead (Herpes virus [3]; oral, total dose .0005 μg): 5
- Survivors (Herpes virus [3]; oral, total dose .0005 μg): 4
- No. animals surviving when 17/20 controls are dead (Herpes virus [3]; oral, total dose .05 μg): 0
- Survivors (Herpes virus [3]; oral, total dose .05 μg): 0
- No. Hatched, total (Herpes virus [4]; all doses): 5
- No. Living Longer Than Controls, total (Herpes virus [4]; all doses): 12
- Deaths on day 1 (Herpes virus [4]; dose 2 μg): 1
- Deaths on day 2 (Herpes virus [4]; dose 2 μg): 5
- Deaths on day 3 (Herpes virus [4]; dose 2 μg): 3
- Total Deaths 4th Day (Herpes virus [4]; dose 2 μg): 9
- Deaths on day 2 (Herpes virus [4]; dose 20 μg): 5
- Deaths on day 3 (Herpes virus [4]; dose 20 μg): 1
- Deaths on day 4 (Herpes virus [4]; dose 20 μg): 2
- Total Deaths 4th Day (Herpes virus [4]; dose 20 μg): 8
- Deaths on day 1 (Herpes virus [4]; dose .00005 μg): 2
- Deaths on day 2 (Herpes virus [4]; dose .00005 μg): 4
- Deaths on day 3 (Herpes virus [4]; dose .00005 μg): 5
- Total Deaths 4th Day (Herpes virus [4]; dose .00005 μg): 11
- Deaths on day 1 (Herpes virus [4]; dose .0005 μg): 1
- Deaths on day 2 (Herpes virus [4]; dose .0005 μg): 5
- Deaths on day 3 (Herpes virus [4]; dose .0005 μg): 3
- Deaths on day 4 (Herpes virus [4]; dose .0005 μg): 1
- Total Deaths 4th Day (Herpes virus [4]; dose .0005 μg): 10
- Deaths on day 1 (Herpes virus [4]; dose .005 μg): 2
- Deaths on day 2 (Herpes virus [4]; dose .005 μg): 4
- Deaths on day 3 (Herpes virus [4]; dose .005 μg): 2
- Deaths on day 4 (Herpes virus [4]; dose .005 μg): 3
- Total Deaths 4th Day (Herpes virus [4]; dose .005 μg): 11
- Deaths on day 1 (Herpes virus [4]; dose .05 μg): 2
- Deaths on day 2 (Herpes virus [4]; dose .05 μg): 6
- Deaths on day 3 (Herpes virus [4]; dose .05 μg): 3
- Total Deaths 4th Day (Herpes virus [4]; dose .05 μg): 11
- Deaths on day 1 (Herpes virus [4]; dose .5 μg): 1
- Deaths on day 2 (Herpes virus [4]; dose .5 μg): 3
- Deaths on day 3 (Herpes virus [4]; dose .5 μg): 6
- Deaths on day 4 (Herpes virus [4]; dose .5 μg): 2
- Total Deaths 4th Day (Herpes virus [4]; dose .5 μg): 12

SMILES: CN1C(=O)/C(=N\NC(N)=S)c2ccccc21 [Methisazone, 1-methylindole-2,3-dione,3-thiosemicarbazone, reference compound]
- No. animals surviving after 5 days ([5]; oral, total dose 5 μg): 4
- Survivors ([5]; oral, total dose 5 μg): 0
- No. animals surviving after 5 days ([5]; oral, total dose 50 μg): 3
- Survivors ([5]; oral, total dose 50 μg): 0
- No. animals surviving after 5 days ([5]; oral, total dose .00005 μg): 6
- Survivors ([5]; oral, total dose .00005 μg): 0
- No. animals surviving after 5 days ([5]; oral, total dose .0005 μg): 5
- Survivors ([5]; oral, total dose .0005 μg): 0
- No. animals surviving after 5 days ([5]; oral, total dose .005 μg): 5
- Survivors ([5]; oral, total dose .005 μg): 0
- No. animals surviving after 5 days ([5]; oral, total dose .05 μg): 4
- Survivors ([5]; oral, total dose .05 μg): 0
- No. animals surviving after 5 days ([5]; oral, total dose .5 μg): 6
- Survivors ([5]; oral, total dose .5 μg): 0
- activity ([6]; mouse, in vivo): active against Influenza B Maryland virus
- No. animals surviving when 18/20 of controls are dead ([6]; total dose 6 ng): 4
- Survivors ([6]; total dose 6 ng): 2
- No. animals surviving when 18/20 of controls are dead ([6]; total dose 60 ng): 4
- Survivors ([6]; total dose 60 ng): 2
- No. animals surviving when 18/20 of controls are dead ([6]; total dose 600 ng): 2
- Survivors ([6]; total dose 600 ng): 2
- No. animals surviving when 18/20 of controls are dead ([6]; total dose 6 μg): 4
- Survivors ([6]; total dose 6 μg): 1
- activity (in words) (virus infections): found to have activity
- activity (pox virus): active against pox virus infections of mice
- No. animals surviving after 6 days (Herpes virus [3]; mouse, in vivo, po): 1
- No. animals surviving after 6 days (Herpes virus [3]; oral, total dose .00005 μg): 0
- No. animals surviving after 6 days (Herpes virus [3]; oral, total dose .0005 μg): 0
- No. animals surviving after 6 days (Herpes virus [3]; oral, total dose .005 μg): 0
- Survivors (Herpes virus [3]; oral, total dose .05 μg): 0

SMILES: CC(C=NNC(=N)N)=NNC(=N)N [methyl-GAG, Methylgloxal-bis-guanylhydrazone]
- inhibition (Influenza A PR8 virus; lower limit): Ninety
- Toxicity (Influenza A PR8 virus; upper limit): toxic

SMILES: NNC(N)=O [semicarbazide]
- No. animals surviving when 100% controls are dead ([1]; total dose .000005 μg): 0
- Survivors ([1]; total dose .000005 μg): 0
- No. animals surviving when 100% controls are dead ([1]; total dose .00005 μg): 0
- Survivors ([1]; total dose .00005 μg): 0
- No. animals surviving when 100% controls are dead ([1]; total dose .0005 μg): 1
- Survivors ([1]; total dose .0005 μg): 0
- No. animals surviving after 5 days ([1]; total dose .005 μg): 6
- Survivors ([1]; total dose .005 μg): 0
- No. animals surviving after 5 days ([1]; total dose .05 μg): 6
- No. animals surviving when 100% controls are dead ([1]; total dose .05 μg): 1
- Survivors ([1]; total dose .05 μg): 0
- No. animals surviving after 5 days ([1]; total dose .5 μg): 4
- No. animals surviving when 100% controls are dead ([1]; total dose .5 μg): 1
- Survivors ([1]; total dose .5 μg): 0
- Survivors (Influenza PR 8 virus; oral, total dose .000005 μg): 0
- No. animals surviving when 18/20 of controls are dead (Influenza PR 8 virus; oral, total dose .00005 μg): 0
- Survivors (Influenza PR 8 virus; oral, total dose .00005 μg): 0
- No. animals surviving when 18/20 of controls are dead (Influenza PR 8 virus; oral, total dose .0005 μg): 0
- Survivors (Influenza PR 8 virus; oral, total dose .0005 μg): 0
- No. animals surviving when 18/20 of controls are dead (Influenza PR 8 virus; oral, total dose .005 μg): 0
- Survivors (Influenza PR 8 virus; oral, total dose .005 μg): 0
- No. animals surviving when 18/20 of controls are dead (Influenza PR 8 virus; oral, total dose .05 μg): 4
- Survivors (Influenza PR 8 virus; oral, total dose .05 μg): 4
- total number of survivors ([5]; oral, four dose levels): 10
- Survivors ([5]; subcutaneous, total dose .05 μg): 0
- effect on pox formation on the membrane (Vaccinia virus [7]): No effect on pox formation on the membrane could be observed
- Survivors (Herpes virus [3]; oral, total dose .000005 μg): 0
- Survivors (Herpes virus [3]; oral, total dose .5 μg): 0
- No. Living Longer Than Controls, total (Herpes virus [4]; all doses): 10

SMILES: CCC(C)=NNC(N)=S [thiosemicarbazone]
- protection against death (Influenza PR 8 virus; drinking water 24 h pre- and 24 h post-infection): significantly protected against death
- statistically significant geometric mean survival time (Columbia SK Polio virus): two instances of a statistically significant geometric mean survival time
- effect on pox formation (Vaccinia virus [2]): dramatic reduction and even elimination of all pox formation over several dilutions; also recorded: highly significant diminution of pox formation
